Experimental data reported in patent publication US20190231748A1, “COMPOSITION FOR VAGINA AND ANTIMICROBIAL AGENT COMBINATION FOR USE IN PREPARING COMPOSITION FOR VAGINA” (Shenzhen Eulikan Biotechnology Co., Ltd., priority 2016, published 2019).

Assays:
Assay type in all cases: cell-based
[1] = test system: nine strains of Candida albicans; test: Growth of Candida in enrichment broth after 24 hours, clinical strains; set-up: key to growth of Candida albicans, strain 1 / growth of Candida albicans, strain 2 / growth of Candida albicans, strain 3 / growth of Candida albicans, strain 4 / growth of Candida albicans, strain 5 / growth of Candida albicans, strain 6 / growth of Candida albicans, strain 7 / growth of Candida albicans, strain 8 / growth of Candida albicans, strain 9: +: means the growth of organisms; −: means no growth of organisms; settings: enrichment broth, 37° C. for 24 hours
Source text: b. Enrichment broth: which contained 1 percent of yeast extract powder, 9 percent of sucrose, 0.025 percent of manganese sulfate (MnSO4.4H2O), 0.058 percent of magnesium sulfate (MgSO4.7H2O), and 0.9 percent of lactic acid, the pH value of the broth was adjusted to 4.5, and the enrichment broth was sterilized for later use;
(2) Experimental groups: the requirements of aseptic operation technique were strictly followed so to prepare the sterile test tubes;
a. sodium benzoate group: each test tube contained 5 milliliters enrichment broth, and was added in 0.025 percent (weight/volume) of sodium benzoate;
b. 2-phenylethanol group: each test tube contained 5 milliliters enrichment broth, and was added in 0.050 percent (weight/volume) of 2-phenylethanol;
c. sodium propionate group: each test tube contained 5 milliliters enrichment broth, and was added in 0.125 percent (weight/volume) of sodium propionate;
d. “a group of the combinations of sodium benzoate and sodium propionate”: each test tube contained 5 milliliters enrichment broth, and was added in 0.025 percent (weight/volume) of sodium benzoate and 0.125 percent (weight/volume) of sodium propionate;
e. “a group of the combinations of sodium benzoate and 2-phenylethanol”: each test tube contained 5 milliliters enrichment broth, and was added in 0.025 percent (weight/volume) of sodium benzoate and 0.050 percent (weight/volume) of 2-phenylethanol;
f. “a group of the combinations of sodium propionate and 2-phenylethanol”: each test tube contained 5 milliliters enrichment broth, and was added in 0.125 percent (weight/volume) of sodium propionate and 0.050 percent (weight/volume) of 2-phenylethanol;
g. “a group of the combinations of sodium benzoate, sodium propionate and 2-phenylethanol”: each test tube contained 5 milliliters enrichment broth, and was added in 0.025 percent (weight/volume) of sodium benzoate, 0.125 percent (weight/volume) of sodium propionate and 0.050 percent (weight/volume) of 2-phenylethanol;
h. positive control: the control tube of enrichment broth without adding in 2-phenylethanol, sodium benzoate, and sodium propionate; but inoculated the suspension of Candida albicans;
i. negative control: the control tube of enrichment broth without adding in 2-phenylethanol, sodium benzoate, and sodium propionate; and without inoculating Candida albicans;
The requirements for aseptic operation technique were strictly followed to prepare the suspension of organism. The colonies of each strain of Candida albicans organism were diluted with physiological saline respectively. The turbidities of the suspensions of Candida albicans organism were adjusted to 0.5 MCF (about 10^8 CFU/ml) by a turbidimeter. 1 milliliter of the 0.5 MCF organism suspension was added into 9 milliliters of enrichment broth. Each suspension was diluted for ten times to contain 10^7 CFU/ml of organisms.
the requirements for aseptic technique were strictly followed to take 100 microliters of the prepared organism suspension respectively and to add the suspension into the test tubes from a to h as well as the positive control tube. No organism suspension was added into the negative control tube i.
The above tubes were cultured in a biochemical incubator at 37° C. for 24 hours. Then the growth of Candida in each tube was observed and recorded.
Remark: “+” means the growth of organisms; “−” means no growth of organisms.

[2] = test system: Lactococcus lactis and Lactobacillus jensenii; test: pH of test gel after co-culture of Lactococcus lactis and Lactobacillus jensenii; settings: cultivated 32 hours
Source text: (§1) 2.1 Experimental strains: one Lactococcus lactis strain and one Lactobacillus jensenii strain, both were clinical isolates.
(§2) The pH value was adjusted to 5.0.
(§3) 2.4 Experimental procedure: the test gel tubes containing different concentrations of antimicrobial agents, as shown in Tables 1 to 6 were inoculated with 100 microliters of Lactobacillus lactis suspension and 100 microliters of Lactobacillus jensenii suspension at the same time. The turbidities of both suspensions were 0.5 MCF. Then the tubes were cultivated at 37° C. and under 5 percent CO2 for 32 hours. Then the changes of the pH values of gels were tested. The gels were smeared, Gram stained, and microscopically examined for the morphology and quantity of bacteria.

Lactococcus lactis = test: Gram-stained smear of co-culture gel, Gram-positive cocci (G+c); settings: for Smear G^+c: cultivated 32 hours
Source text: as §1, §2, §3

Lactobacillus jensenii = test: Gram-stained smear of co-culture gel, Gram-positive rods (G+b); settings: for Smear G^+b: cultivated 32 hours
Source text: as §1, §2, §3

O=C([O-])c1ccccc1.[Na+] [d. 0.025% sodium benzoate]
+: growth of Candida albicans, strain 1 [1] | growth of Candida albicans, strain 2 [1] | growth of Candida albicans, strain 3 [1] | growth of Candida albicans, strain 4 [1] | growth of Candida albicans, strain 5 [1] | growth of Candida albicans, strain 6 [1] | growth of Candida albicans, strain 7 [1] | growth of Candida albicans, strain 8 [1] | growth of Candida albicans, strain 9 [1]

OCCc1ccccc1 [e. 0.050% 2-phenylethanol]
−: growth of Candida albicans, strain 1 [1] | growth of Candida albicans, strain 7 [1]
+: growth of Candida albicans, strain 2 [1] | growth of Candida albicans, strain 3 [1] | growth of Candida albicans, strain 4 [1] | growth of Candida albicans, strain 5 [1] | growth of Candida albicans, strain 6 [1] | growth of Candida albicans, strain 8 [1] | growth of Candida albicans, strain 9 [1]

CCC(=O)[O-].[Na+] [f. 0.125% sodium propionate]
−: growth of Candida albicans, strain 3 [1] | growth of Candida albicans, strain 7 [1] | growth of Candida albicans, strain 9 [1]
+: growth of Candida albicans, strain 1 [1] | growth of Candida albicans, strain 2 [1] | growth of Candida albicans, strain 4 [1] | growth of Candida albicans, strain 5 [1] | growth of Candida albicans, strain 6 [1] | growth of Candida albicans, strain 8 [1]

CC(=O)[O-].[Na+] [sodium acetate]
3.8: pH value ([2]; 0.6 % in test gel) | pH value ([2]; 0.7 % in test gel)
little inhibition effect: inhibition effect on the growth of Lactococcus lactis (Lactococcus lactis; 0.1 to 0.8 percent)
G^+c++: Smear G^+c (Lactococcus lactis; 0.1 % in test gel) | Smear G^+c (Lactococcus lactis; 0.2 % in test gel) | Smear G^+c (Lactococcus lactis; 0.3 % in test gel) | Smear G^+c (Lactococcus lactis; 0.4 % in test gel) | Smear G^+c (Lactococcus lactis; 0.5 % in test gel) | Smear G^+c (Lactococcus lactis; 0.6 % in test gel) | Smear G^+c (Lactococcus lactis; 0.7 % in test gel) | Smear G^+c (Lactococcus lactis; 0.8 % in test gel)
<3.8: pH value ([2]; 0.1 % in test gel) | pH value ([2]; 0.2 % in test gel) | pH value ([2]; 0.3 % in test gel) | pH value ([2]; 0.4 % in test gel) | pH value ([2]; 0.5 % in test gel)
3.8-4.1: pH value ([2]; 0.8 % in test gel)
G^+b+: Smear G^+b (Lactobacillus jensenii; 0.1 % in test gel) | Smear G^+b (Lactobacillus jensenii; 0.2 % in test gel) | Smear G^+b (Lactobacillus jensenii; 0.3 % in test gel) | Smear G^+b (Lactobacillus jensenii; 0.4 % in test gel) | Smear G^+b (Lactobacillus jensenii; 0.5 % in test gel) | Smear G^+b (Lactobacillus jensenii; 0.6 % in test gel) | Smear G^+b (Lactobacillus jensenii; 0.7 % in test gel) | Smear G^+b (Lactobacillus jensenii; 0.8 % in test gel)

CC(=O)c1c([O-])cc(C)oc1=O.[Na+] [sodium dehydroacetate]
3.8: pH value ([2]; 0.005 % in test gel) | pH value ([2]; 0.010 % in test gel) | pH value ([2]; 0.015 % in test gel) | pH value ([2]; 0.020 % in test gel) | pH value ([2]; 0.025 % in test gel) | pH value ([2]; 0.030 % in test gel) | pH value ([2]; 0.035 % in test gel)
G^+c++: Smear G^+c (Lactococcus lactis; 0.005 % in test gel) | Smear G^+c (Lactococcus lactis; 0.010 % in test gel) | Smear G^+c (Lactococcus lactis; 0.015 % in test gel) | Smear G^+c (Lactococcus lactis; 0.020 % in test gel) | Smear G^+c (Lactococcus lactis; 0.025 % in test gel) | Smear G^+c (Lactococcus lactis; 0.030 % in test gel) | Smear G^+c (Lactococcus lactis; 0.035 % in test gel)
little inhibition effect: inhibition effect on the growth of Lactococcus lactis (Lactococcus lactis; 0.005 to 0.035 percent)
G^+b+: Smear G^+b (Lactobacillus jensenii; 0.005 % in test gel) | Smear G^+b (Lactobacillus jensenii; 0.010 % in test gel) | Smear G^+b (Lactobacillus jensenii; 0.015 % in test gel) | Smear G^+b (Lactobacillus jensenii; 0.020 % in test gel) | Smear G^+b (Lactobacillus jensenii; 0.025 % in test gel) | Smear G^+b (Lactobacillus jensenii; 0.030 % in test gel) | Smear G^+b (Lactobacillus jensenii; 0.035 % in test gel)

CCCCCCCC(=O)[O-].[Na+] [sodium octanoate]
<3.8: pH value ([2]; 0.010 % in test gel) | pH value ([2]; 0.015 % in test gel)
3.8: pH value ([2]; 0.020 % in test gel)
G^+c++++: Smear G^+c (Lactococcus lactis; 0.010 % in test gel) | Smear G^+c (Lactococcus lactis; 0.015 % in test gel) | Smear G^+c (Lactococcus lactis; 0.020 % in test gel)
little inhibition effect: inhibition effect on the growth of Lactococcus lactis (Lactococcus lactis; 0.010 to 0.020 percent)
stronger inhibiting effect: inhibiting effect on Lactococcus lactis (Lactococcus lactis; 0.05 percent) | inhibiting effect on lactobacillus (Lactobacillus jensenii; 0.05 percent)
4.8: pH value ([2]; 0.05 % in test gel)
G^+b+: Smear G^+b (Lactobacillus jensenii; 0.010 % in test gel) | Smear G^+b (Lactobacillus jensenii; 0.015 % in test gel) | Smear G^+b (Lactobacillus jensenii; 0.020 % in test gel)
